Measured values as given in BindingDB's records for patent US20240279215 (Cytokinetics, Incorporated, 2024).

Target: Nicotinamide phosphoribosyltransferase (Homo sapiens, UniProt P43490)
Test: NMN Fluorescence Biochemical Assay
Method: Compounds described herein were assayed for their ability to stimulate the synthesis of nicotinamide mononucleotide (NMN) by the enzyme NAMPT. The human recombinant enzyme assay measures the activation of the enzyme activity by compounds using recombinant enzyme and substrates in a buffered cell-free system. The assay conditions closely mimic cellular environments. Dose responses were measured using an assay to detect the formation of nicotinamide mono-nucleotide. All experiments were performed in the 384-well format. Generally, 0.5 μL of DMSO containing varying concentrations of the test compound was mixed with 10 μL of the enzyme reagent solution. Enzyme reactions were initiated with the addition of […] containing the substrates. The final assay conditions were as follows: 6 nM human NAMPT, 2.5 mM ATP, 20 μM PRPP and 150 μM nicotinamide in 50 mM HEPES, pH 7.2, 1 mM DTT, 1 mM CHAPS 50 mM NaCl, 100 mM MgCl2. Following an incubation of 60 min at ambient temperature, 10 μL of 20% acetophenone in DMSO was added, followed by 10 μL of 2 M KOH and 40 μL of formic acid. The plates were read for fluorescence (Excitation/Emission=355 nm/460 nm) using an EnVision plate reader after 40 mins of incubation at ambient temperature.

Nicotinamide phosphoribosyltransferase, sequence (P43490 whole entry): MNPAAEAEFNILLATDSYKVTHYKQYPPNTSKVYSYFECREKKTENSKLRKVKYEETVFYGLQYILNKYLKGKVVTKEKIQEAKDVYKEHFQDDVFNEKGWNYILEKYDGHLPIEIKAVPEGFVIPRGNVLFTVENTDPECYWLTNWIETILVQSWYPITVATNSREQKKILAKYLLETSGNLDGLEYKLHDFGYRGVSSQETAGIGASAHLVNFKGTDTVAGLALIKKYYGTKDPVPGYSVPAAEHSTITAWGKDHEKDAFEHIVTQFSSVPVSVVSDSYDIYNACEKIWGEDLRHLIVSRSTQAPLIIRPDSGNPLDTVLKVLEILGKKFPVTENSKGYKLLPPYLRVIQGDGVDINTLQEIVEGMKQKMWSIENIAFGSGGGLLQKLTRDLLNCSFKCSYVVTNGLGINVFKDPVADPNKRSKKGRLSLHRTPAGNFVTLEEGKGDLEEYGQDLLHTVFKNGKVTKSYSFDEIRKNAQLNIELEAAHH

EC50	Compound
5.38 µM	O=C(Nc1ccc(CC2CCN(CC(F)F)CC2)cc1)OCc1ccncc1 [US20240279215, Compound 52]
15.8 µM	O=C(Nc1ccc(CN2C(=O)CC[C@@H]2c2cccnc2)cc1)OCc1ccc(Cl)cc1 [US20240279215, Compound 249]
7.94 µM	CN(Cc1ccccc1)S(=O)(=O)c1ccc(NC(=O)OCc2ccc(Cl)cc2)cc1 [US20240279215, Compound 335]
11.5 µM	CN(C1CCOC1)S(=O)(=O)c1ccc(NC(=O)OCc2ccc(Cl)cc2)cc1 (centres undefined) [US20240279215, Compound 342]
